The values below come from US5147652A, “Autobiotics and their use in eliminating nonself cells in vivo” (priority 1990, dated 1992).

The test system of one series is Candida albicans. The experiment in a line: Effect on proliferation of Candida albicans, disk on agar surface (A). It is filed as cell-based. The following applies: 24 hours (*). As to the method: Stock solutions of the following test compounds were dissolved in physiological saline. However DOV was dissolved in water.
C. albicans isolated from clinical specimens were density grown in SubbaRow's broth at 35 C. A loopful of yeast suspension was evenly spread on the surface of Muller-Hilton agar plates (7cm diameter) with a sterile cotton applicator and incubated for 12 hours. The test compounds were placed on the surface of the sensidisks (Whatmann No. 17 paper, 6mm diameter) in a volume of 5, 10, 20, and 50 μliter of stock solutions and made up a final volume of 50 μliter with saline. The plates then were placed and kept at 37 C for 24 hours (*) and 48 hours (**) when the diameters of the inhibitory rings were recorded. Photographs were also taken of plates.

The next series has as its system cell division. The following applies: Stein and co-workers; cited from earlier work.
The format of series [1] is physicochemical.
The subject of series [2] is blood coagulation (citrated human blood plasma). Description: Blood coagulation (i), ketoaldehyde kept 1-2 seconds before plasma added. It is filed as biochemical. The following applies: 1-2 seconds contact. On the procedure:
(§1) 200 microliter thromboplastin (Ortho) was mixed with 10 microliter ketoaldehyde (KA) stock solution. Then 100 microliter citrated human blood plasma was added and the clot formation time (in seconds) was measured on a Fibrionometer. The effect of the ketoaldehyde on coagulation time was evaluated by comparing the clotting time of the KA treated plasma with the untreated control. The result (d%) was read from a special chart expressing the clotting activity.
(§2) All measurements were run in triplicates. The assay was run at 37 C (waterbath) in special tubes and all solutions were prewarmed.
(i) The plasminogen and ketoaldehyde were kept for
1-2 seconds before the blood plasma was added.

In series [3] the test system is blood coagulation (normal plasma). The experiment in a line: Blood coagulation (ii)(b), normal plasma. The class given is biochemical, human. The following applies: incubation time 120 seconds. As to the method: as §1, §2
(ii) The plasminogen and KA were incubated for
varying time before the blood plasma was added.
(b) with normal plasma: clotting time = 11. 7 sec

On to `O=CC(=O)c1ccccc1` [PhG, phenylglyoxal], for which the inhibition diameters in the series on Candida albicans (20 μliter) was 5 mm. For the same molecule, in the series with Candida albicans (50 μliter), the inhibition diameters is given as 8 mm. Further, in the series with cell division, the “effect of reaction with arginine-rich surface proteins on cells” value is “cells that can not divide, and which become leaky and die”. In addition, the “solubility in organic solvents” value in series [1] (chloroform, methanol, ethanol) was “soluble in chloroform methanol and ethanol”. Further, the “solubility limit of stock solution” value in series [1] (physiological saline stock) was “limit solubility”. In addition, in series [1] (water), the solubility in water result was “sparingly soluble in water”. Besides, the “d % (clotting activity)” value in series [2] (control 22) is recorded as 11%. In series [2] (control 24), the coagulation time came to 35 s. Moreover, in series [2] (control hard), the clot result is “hard”. Besides, in series [3], the clotting time was determined as 19.5 s and the d% is on record as 33%.
